Patent US8772499B2, “TRPV3 modulators” (AbbVie Inc., priority 2011, dated 2014)
Read-outs that look alike come from different tables or passages of the source.

Experiments:
human TRPV3 = molecular target: T1, human TRPV3 (Homo sapiens, UniProt Q8NET8); assay: In vitro antagonism of recombinant human TRPV3 activation (FLIPR Tetra calcium assay); format: cell-based; conditions: HEK293 cells stably expressing human TRPV3, agonist 2-APB at 80 μM
T1 construct: expressed in transfected cells
T1 sequence (Q8NET8 1-790): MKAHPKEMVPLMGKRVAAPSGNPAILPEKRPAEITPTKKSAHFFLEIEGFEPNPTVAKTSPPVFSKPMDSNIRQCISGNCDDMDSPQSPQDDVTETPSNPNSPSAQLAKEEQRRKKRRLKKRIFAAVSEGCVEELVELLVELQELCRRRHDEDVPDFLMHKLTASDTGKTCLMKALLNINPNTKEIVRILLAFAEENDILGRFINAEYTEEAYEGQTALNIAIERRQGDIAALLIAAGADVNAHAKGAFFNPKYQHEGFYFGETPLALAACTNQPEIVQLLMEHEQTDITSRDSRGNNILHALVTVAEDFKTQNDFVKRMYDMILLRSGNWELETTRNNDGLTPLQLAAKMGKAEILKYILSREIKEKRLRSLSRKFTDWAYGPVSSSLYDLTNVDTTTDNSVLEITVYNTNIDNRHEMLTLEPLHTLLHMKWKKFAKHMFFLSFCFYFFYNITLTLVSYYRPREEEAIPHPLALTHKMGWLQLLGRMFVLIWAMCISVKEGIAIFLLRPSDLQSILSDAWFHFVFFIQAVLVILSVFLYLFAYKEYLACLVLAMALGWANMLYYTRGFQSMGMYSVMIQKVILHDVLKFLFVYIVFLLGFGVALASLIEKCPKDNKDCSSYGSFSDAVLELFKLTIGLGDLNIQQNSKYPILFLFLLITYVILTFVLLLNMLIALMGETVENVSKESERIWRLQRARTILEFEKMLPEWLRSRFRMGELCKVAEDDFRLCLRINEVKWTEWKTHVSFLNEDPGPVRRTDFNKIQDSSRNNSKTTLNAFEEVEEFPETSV
Method in brief: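 Calcium flux read over a 10 min run: compound added at 10 s to Calcium-4-loaded human TRPV3-HEK293 cells, agonist 2-APB (80 μM, its EC80) after 3 min. IC50 derived from peak-minus-baseline signal as percentage of uninhibited 2-APB response, typically averaged over at least two runs.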

[1] = In vitro human microsomal stability assay; format: in vitro ADME; conditions: human, microsomes, 0.5 h, 0.5 μM, pH 7.4
Method in brief: (§1)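 Incubations ran at 37° C. in microsomal preparations of rat (Sprague-Dawley) or human liver, with NADPH present, including at time zero.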

[2] = In vitro rat microsomal stability assay; format: in vitro ADME, rat (Sprague-Dawley); conditions: Sprague-Dawley, rat, microsomes, 0.5 h, 0.5 μM, pH 7.4
Method in brief: as §1

[3] = actual measured value shown parenthetically, in most cases average of at least two runs, read-out: IC50
[4] = reported range, read-out: IC50 (range class)

SMILES | IC50 (human TRPV3; [3]) [µM] | HUMAN MICROSOMAL STABILITY (% REMAINING AFTER 30 MINUTES) [1] [%] | RAT MICROSOMAL STABILITY (% REMAINING AFTER 30 MINUTES) [2] [%] | IC50 (human TRPV3; [4]) [µM]
N[C@H]1CCC[C@@H]1[C@H](O)C1(c2ccc(Cl)cc2)CCC1 [Example 225, (S)-[(1S,2S)-2-aminocyclopentyl][1-(4-chlorophenyl)cyclobutyl]methanol] | 2.82 | >85 | 34 | –
OC(c1ccccn1)C1(C2=CCC(F)(F)CC2)CCC1 (centres unmarked) [Example 260, [1-(4,4-difluorocyclohex-1-en-1-yl)cyclobutyl](pyridin-2-yl)methanol] | 5.32 | 12 | <0.01 | –
O[C@@H](c1ccccn1)C1(c2cc(C(F)(F)F)ccn2)CCC1 [Example 122, (R)-pyridin-2-yl{1-[4-(trifluoromethyl)pyridin-2-yl]cyclobutyl}methanol] | > 20 | 28 | 26 | > 20
OC(c1ccccn1)C1(c2ccc(Cl)c(Cl)c2)CCNCC1 (centres unmarked) [Example 140, [4-(3,4-dichlorophenyl)piperidin-4-yl](pyridin-2-yl)methanol] | > 20 | >85 | 37 | > 20
O=C1CC(c2ccc(C(F)(F)F)cc2)([C@@H](O)c2ccccn2)C1 (single isomer, unassigned) [Example 165] | 16.6 | 83 | 77 | –
OC(c1ccccn1)C1(c2cccc(F)c2)CCC1 (centres unmarked) [Example 2, [1-(3-fluorophenyl)cyclobutyl](pyridin-2-yl)methanol] | 0.32 | 17 | 0.64 | –
OC(c1ccccn1)C1(c2cccc(C(F)(F)F)n2)CCC1 (centres unmarked) [Example 234, pyridin-2-yl{1-[6-(trifluoromethyl)pyridin-2-yl]cyclobutyl}methanol] | 5.36 | 19 | 23 | –
O=C1CC(c2cccc(C(F)(F)F)c2)([C@H](O)c2ccccn2)C1 (single isomer, unassigned) [Example 241] | 1.67 | 66 | 59 | –
OC(C1CCc2cccnc21)C1(c2ccc(F)c(F)c2)CCC1 (stereo not drawn) [Example 171, (anti)-[1-(3,4-difluorophenyl)cyclobutyl][6,7-dihydro-5H-cyclopenta[b]-pyridin-7-yl]methanol] | > 20 | 2.7 | <0.01 | > 20
OC(c1ccccn1)C1(C2CCCC2)CCC1 (centres unmarked) [Example 163, (1-cyclopentylcyclobutyl)(pyridin-2-yl)methanol] | 4.9 | 0.11 | <0.01 | –
Nc1cccnc1C(O)C1(c2ccc(C(F)(F)F)cc2)CCC1 (centres unmarked) [Example 127, (3-aminopyridin-2-yl) {1-[4-(trifluoromethyl)phenyl]cyclobutyl}methanol] | 11.6 | 51 | 1.1 | –
O[C@H](c1ccccn1)[C@]1(c2ccc(C(F)(F)F)cc2)C[C@H](O)C1 [Example 200, cis-3-[(S)-hydroxy(pyridin-2-yl)methyl]-3-[4-(trifluoromethyl)phenyl]-cyclobutanol] | 5.25 | >85 | >85 | –
NC1CCC1C(O)C1(c2cccc(C(F)(F)F)c2)CCC1 (centres unmarked) [Example 213, (2-aminocyclobutyl) {1-[3-(trifluoromethyl)phenyl]cyclobutyl}methanol] | 3.24 | >85 | 72 | –
O[C@@H](c1ccccn1)C1(c2cc(C(F)(F)F)ccn2)CC(F)(F)C1 [Example 125, (R)-{3,3-difluoro-1-[4-(trifluoromethyl)pyridin-2-yl]cyclobutyl}(pyridin-2-yl)-methanol] | 18.6 | 53 | 8.8 | –
OC(c1ccccn1)C1(C2CCCc3ccccc32)CCC1 (centres unmarked) [Example 56, pyridin-2-yl[1-(1,2,3,4-tetrahydronaphthalen-1-yl)cyclobutyl]methanol] | 1.07 | 0.42 | 1.1 | –
CC(=O)O[C@H](c1ccccn1)C1(c2ccc(OC(F)(F)F)cc2)CCC1 [Example 288, (S)-pyridin-2-yl{1-[4-(trifluoromethoxy)phenyl]cyclobutyl}methyl acetate] | 14.6 | <0.01 | <0.01 | –
NC1CCCC1C(O)C1(c2ccc(OC(F)(F)F)cc2)CCC1 (centres unmarked) [Example 206, (2-aminocyclopentyl) {1-[4-(trifluoromethoxy)phenyl]cyclobutyl}methanol] | 2.63 | 83 | 62 | –
Nc1cccnc1C(O)C1(c2ccc(OC(F)(F)F)cc2)CCC1 (centres unmarked) [Example 121, (3-aminopyridin-2-yl) {1-[4-(trifluoromethoxy)phenyl]cyclobutyl}methanol] | > 20 | 41 | 0.18 | > 20
OC(c1ccccn1)C1(c2cccc(Oc3ccccc3)c2)CCC1 (centres unmarked) [Example 23, [1-(3-phenoxyphenyl)cyclobutyl](pyridin-2-yl)methanol] | 0.93 | 0.12 | 0.69 | –
OC1CC(c2cccc(OC(F)(F)F)c2)(C(O)c2ccccn2)C1 (single isomer, unassigned) [Example 273] | 0.09 | 42 | 65 | –
OC1CC(c2ccc(Cl)c(Cl)c2)(C(O)c2ncccn2)C1 (single isomer, unassigned) [Example 313] | > 20 | 81 | >85 | > 20
O[C@H](c1ncccn1)C1(c2ccc(Cl)c(Cl)c2)CCC1 [Example 39, (S)-[1-(3,4-dichlorophenyl)cyclobutyl](pyrimidin-2-yl)methanol] | 0.74 | 51 | 11 | –
COC1CC(c2ccc(Cl)c(Cl)c2)([C@H](O)c2ccccn2)C1 (mixture of isomers) [Example 151, (S)-[1-(3,4-dichlorophenyl)-3-methoxycyclobutyl](pyridin-2-yl)methanol] | 1.24 | 32 | <0.01 | –
CC(c1ccccc1Cl)C1(C(O)c2ccccn2)CCC1 (centres unmarked) [Example 50, {1-[1-(2-chlorophenyl)ethyl]cyclobutyl}(pyridin-2-yl)methanol] | 2.42 | 0.08 | 0.18 | –
